How the values were obtained:
[1] = tested on: N-acetyl amino acid racemase from Amycolatopsis orientalis subsp. lurida; assay: Detection of racemase activity of recombinant AAR (polarimetric racemization assay); format: biochemical; conditions: substrate 25 mM, Tris/HCl 50 mM pH 8.0, cobalt chloride 6 mM, approx 150 μg purified protein, 30° C., 3 to 12 hours, polarimeter λ=365 nm
Experimental: The substrate spectrum of the N-acetyl amino acid racemase from Amycolatopsis orientalis subsp. lurida was tested using the enzyme assay described below. The assay was composed of the following: [table] Enantiomerically pure amino acid derivatives were used in the test and the formation of the corresponding racemate was monitored in the polarimeter (Perkin-Elmer 241). Incubation took place at 30° C. (heated cell) for 3 to 12 hours. The measurements were taken at a wave length of λ=365 nm.

[2] = target: T1, N-acyl amino acid racemase from A. TS-1-60 (Amycolatopsis sp, UniProt Q44244); assay: Racemase activity of the N-acyl amino acid racemase from A. TS-1-60; format: biochemical, Amycolatopis sp. TS-1-60; conditions: N-carbamoyl-D-Met as substrate
T1 sequence (Q44244 1-368): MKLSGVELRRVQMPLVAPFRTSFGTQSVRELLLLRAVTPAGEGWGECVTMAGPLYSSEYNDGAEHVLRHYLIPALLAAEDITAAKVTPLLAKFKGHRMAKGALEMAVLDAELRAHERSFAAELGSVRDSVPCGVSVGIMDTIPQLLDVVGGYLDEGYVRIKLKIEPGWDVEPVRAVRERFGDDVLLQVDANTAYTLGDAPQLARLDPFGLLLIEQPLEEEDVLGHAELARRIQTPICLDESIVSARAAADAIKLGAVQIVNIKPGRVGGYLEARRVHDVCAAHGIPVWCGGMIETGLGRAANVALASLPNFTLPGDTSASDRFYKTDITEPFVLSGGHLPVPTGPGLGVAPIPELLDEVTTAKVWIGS
Description: The N-acyl amino acid racemase from A. TS-1-60 with N-carbamoyl-D-Met as substrate has an activity of 100 mU/mg. This specific activity is thus 35% lower than that of the racemase from A. orientalis subsp. lurida.

With `CSCC[C@@H](NC(N)=O)C(=O)O` [N-Carbamoyl-D-Met] the “Specific activity of the AAR” value [1] was 155 mU/mg, the “activity (specific activity) of the racemase from A. TS-1-60” value [2] was 100 mU/mg and the “specific activity lower than that of the racemase from A. orientalis subsp. lurida” value ([2]; TS-1-60 racemase versus A. orientalis subsp. lurida racemase) was 35%.

For `NC(=O)N[C@H](Cc1ccccc1)C(=O)O` [N-Carbamoyl-D-Phe], the “Specific activity of the AAR” value [1] was 20 mU/mg.

In the case of `CC(C)C[C@H](NC(N)=O)C(=O)O` [N-Carbamoyl-L-Leu], the “Specific activity of the AAR” value [1] is reported as 20 mU/mg.

For `CSCC[C@H](NC(N)=O)C(=O)O` [N-Carbamoyl-L-Met], the “Specific activity of the AAR” value [1] was 118 mU/mg.

In the case of `NC(=O)N[C@@H](Cc1ccc(O)cc1)C(=O)O` [N-Carbamoyl-L-Tyr], the “Specific activity of the AAR” value [1] is reported as 62 mU/mg.

`CC(C)[C@H](NC(N)=O)C(=O)O` [N-Carbamoyl-L-Val] was tested, and the “Specific activity of the AAR” value [1] was 20 mU/mg.

With N-Carbamoyl-L-Abs the “Specific activity of the AAR” value [1] was 15 mU/mg.

From US6767725B2, “Acetyl amino acid racemase from amycolatopsis orientalis for racemizing carbamoyl amino acids” (Degussa AG, priority 2000, dated 2004)
